Experimental data taken from patent publication US5622933A, “Multiple branch peptide constructions for use against HIV” (priority 1993, dated 1997).

Experiments:
[1] = system: HIV; test: Infection of HT-29 human colon cells through the GalCer receptor; format: cell-based
Experimental: The activity of MBPCs was evaluated on this alternative infection route as follows: HT-29 cells (5×10^5 cells) were incubated with MBPCs (5×10^-6 M) for 45 minutes and subsequently exposed to 100 TCID50 of HIV-1 (LAI), HIV-1 (NDK) or HIV-2 (ROD) for 1 hour at 37° C. The residual inoculum was inactivated by three successive trypsinations and infection was assessed by: i) direct measurement of HIV-1 p24^gag (for HIV-1 isolates) and RT activity (for HIV-1 and HIV-2 isolates) in the culture supernatants; ii) co-cultivation with human PBLs. The cells were treated with the MBPCs as follows: 1- none; 2- [GPGRAF]8 -MLC; 3- [GPGRAF]8 -MLCD; 4- [GPG(R)DAF]8 -MLC; 5- [GPGRAF]16 -MLC; 6- [[…]]4 -MLC; and 7- [[…]]4 -MLC, with all amino acids in L form unless noted otherwise. The results shown in FIG. 5A, which correspond to infection with HIV-1 (NDK), are representative of three separate experiments and the MBPC used is indicated by the number on the x-axis. The concentration of p24^gag (pg/ml) was measured during the co-culture experiment with PBLs (+++, >10 ng/ml 10 days post-infection; ++, >1 ng/ml 13 days post-infection; +, >1 ng/ml 16 days post-infection; -, no detectable p24^gag 1 month post-infection). Similar results were obtained with HIV-1 (LAI) and HIV-2 (ROD).

[2] = system: GalCer receptor; test: Binding of gp120 to GalCer (HPTLC binding assay)
Experimental: In another experiment with the same MBPCs, the effect of MBPCs on the binding of gp120 to GalCer was analyzed using a high performance thin layer chromatography (HPTLC) binding assay. MBPCs (10^-4 M) were preincubated with GalCer for 1 hour at room temperature. After thorough washing, the HPTLC plates were incubated with HIV-1 recombinant gp120 (2.5 ug/ml) followed by rabbit anti-gp120 and ^125 I-goat anti-rabbit IgG. The plates were washed in PBS and exposed to Amersham Hyperfilm MP for 8 hours. As shown in FIG. 5B treatment of HT-29 cells with active MBPCs protected the cells from infection by HIV-1 (NDK isolate). This antiviral effect was correlated with its ability to block the binding of gp120 to GalCer.

[3] = system: HIV; test: Inhibition of syncytia formation induced by HIV (summary statements); format: cell-based
Experimental: CEM or C8166 cells were chronically infected with HIV-1 Lai or HIV-2 Rod, or HIV-1MN, respectively. Infected cells (1×10^4) were incubated for 2 hours with various concentrations of MBPCs in 96-well plates. Uninfected Molt-4 cells (4×10^4) were then added in […]. Syncytia were counted after 18 hours at 37° C.

Question: Which results are given for “(GPGRAF)16 -(K)8 -(K)4 -(K)2 -K-βA-OH [MBPC.12]”?
Answer: block of the infectivity of HIV on human colon cells [1]: completely block; binding to / activity on the Galactosyl Ceramide receptor [2]: bind to the second receptor; MBPC concentration with which inhibiting effect on syncytia formation was observed in vitro [3]: around 10^-6 M; inhibiting effect on syncytia formation, in words [3]: results similar to those of MBPC.3
